Literature values in patent publication US8492370B2, “Compounds and methods for their production” (Bristol-Myers Squibb Company, priority 2006, dated 2013).

Experiments:
[1] = biological target: Hsp90 (Homo sapiens, UniProt P07900)
[2] = system: SKBr3; details: compared with geldanamycin and 17-AAG
[3] = system: Reverse transcriptase
[4] = biological target: terminal deoxynucleotidyl transferase (Homo sapiens, UniProt P04053)
Chain of terminal deoxynucleotidyl transferase (P04053 whole entry, species assumed): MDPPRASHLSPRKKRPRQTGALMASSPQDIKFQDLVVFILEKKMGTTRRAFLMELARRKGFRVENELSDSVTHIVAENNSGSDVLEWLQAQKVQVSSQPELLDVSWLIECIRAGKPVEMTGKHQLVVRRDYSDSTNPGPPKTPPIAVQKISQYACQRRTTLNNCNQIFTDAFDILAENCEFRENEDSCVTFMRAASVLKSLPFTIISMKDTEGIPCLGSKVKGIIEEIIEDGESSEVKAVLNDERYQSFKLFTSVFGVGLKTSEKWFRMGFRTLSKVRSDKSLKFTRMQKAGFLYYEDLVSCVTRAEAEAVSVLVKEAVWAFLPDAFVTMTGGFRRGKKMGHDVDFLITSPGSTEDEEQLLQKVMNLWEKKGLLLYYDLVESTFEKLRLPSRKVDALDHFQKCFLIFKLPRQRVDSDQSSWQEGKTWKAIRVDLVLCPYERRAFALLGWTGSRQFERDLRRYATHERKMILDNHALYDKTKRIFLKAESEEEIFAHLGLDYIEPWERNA

| binding affinity to Hsp90, fold greater than 17-AAG ([1]; relative to 17-AAG) [fold] | binding affinity to Hsp90, fold greater than geldanamycin ([1]; relative to geldanamycin) [fold] | IC50 measurement using SKBr3 [2] | SMILES | Reverse transcriptase activity inhibition [3] | terminal deoxynucleotidyl transferase activity inhibition [4] |
| --- | --- | --- | --- | --- | --- |
| 8 | 4 | not reflected in an improvement | CO[C@H]1C[C@H](C)Cc2cc(O)cc(c2)NC(=O)/C=C/CC[C@H](OC)[C@@H](OC(N)=O)/C(C)=C/[C@H](C)[C@H]1O [KOSN1559] | – | – |
| – | – | – | CO[C@H]1[C@@H](OC)C[C@H](C)[C@@H](OC)C2=CC(=O)C=C(NC(=O)/C(C)=C/C=C\[C@H](C)[C@@H](OC(N)=O)/C(C)=C/[C@@H]1C)C2=O [macbecin] | not inhibited | not inhibited |
